Test results taken from PubChem BioAssay (NCI).
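Cultured in 96-well plates, cells were exposed to test compound for 48 hours across five concentrations. Definition used: TGI = concentration required for complete inhibition of growth.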

How the values were obtained:
Assay in all cases: NCI-60 cell line screen, 48 h
SK-MEL-28 melanoma = test system: SK-MEL-28 melanoma
NCI-H460 lung = test system: NCI-H460 lung
NCI-H23 lung = test system: NCI-H23 lung
OVCAR-4 ovarian = test system: OVCAR-4 ovarian
SN12C renal = test system: SN12C renal
MDA-MB-435 = test system: MDA-MB-435
NCI-H522 lung = test system: NCI-H522 lung
SK-MEL-5 melanoma = test system: SK-MEL-5 melanoma
DU-145 prostate = test system: DU-145 prostate
ACHN renal = test system: ACHN renal
HS 578T breast = test system: HS 578T breast
A498 renal = test system: A498 renal
HT29 colon = test system: HT29 colon
BT-549 breast = test system: BT-549 breast
SK-OV-3 ovarian = test system: SK-OV-3 ovarian
T-47D breast = test system: T-47D breast
OVCAR-8 ovarian = test system: OVCAR-8 ovarian
M14 melanoma = test system: M14 melanoma
SF-295 CNS = test system: SF-295 CNS
HCT-116 colon = test system: HCT-116 colon
CCRF-CEM leukemia = test system: CCRF-CEM leukemia
MDA-N = test system: MDA-N
EKVX NSCLC = test system: EKVX NSCLC
NCI-H226 lung = test system: NCI-H226 lung
UO-31 renal = test system: UO-31 renal
HCT-15 colon = test system: HCT-15 colon
CAKI-1 renal = test system: CAKI-1 renal
HOP-92 NSCLC = test system: HOP-92 NSCLC
U251 CNS = test system: U251 CNS
K-562 leukemia = test system: K-562 leukemia
RXF 393 renal = test system: RXF 393 renal
786-0 renal = test system: 786-0 renal
OVCAR-5 ovarian = test system: OVCAR-5 ovarian
SF-539 CNS = test system: SF-539 CNS
IGROV1 ovarian = test system: IGROV1 ovarian
MALME-3M melanoma = test system: MALME-3M melanoma
MCF7 breast = test system: MCF7 breast
LOX IMVI melanoma = test system: LOX IMVI melanoma
COLO 205 colon = test system: COLO 205 colon
SNB-19 CNS = test system: SNB-19 CNS
HL-60(TB) leukemia = test system: HL-60(TB) leukemia
SF-268 CNS = test system: SF-268 CNS
MOLT-4 leukemia = test system: MOLT-4 leukemia
HOP-62 NSCLC = test system: HOP-62 NSCLC
UACC-62 melanoma = test system: UACC-62 melanoma
OVCAR-3 ovarian = test system: OVCAR-3 ovarian
PC-3 prostate = test system: PC-3 prostate
TK-10 renal = test system: TK-10 renal
SNB-75 CNS = test system: SNB-75 CNS
UACC-257 melanoma = test system: UACC-257 melanoma
SK-MEL-2 melanoma = test system: SK-MEL-2 melanoma
KM12 colon = test system: KM12 colon
MDA-MB-231 breast = test system: MDA-MB-231 breast
A549 NSCLC = test system: A549 NSCLC
SW-620 colon = test system: SW-620 colon
NCI/ADR-RES ovarian = test system: NCI/ADR-RES ovarian

## COC(=O)[C@]1(C)CC[C@]2(C)CC[C@]3(C)C4[C@H]5Oc6c(cc7c(c6C)CCC6[C@@]7(C)CC[C@@]7(C)C8[C@](C)(CCC[C@@]8(C)C(=O)OC)CC[C@]67C)O[C@H]5c5c(cc6c(c5C)O[C@@]5(C)C7=CC=C8[C@@](C)(CC[C@@]9(C)[C@@H]%10C[C@](C)(C(=O)OC)CC[C@]%10(C)CC[C@]89C)C7=CC(=O)[C@@]5(O)O6)[C@]4(C)CC[C@@]3(C)C2C1 (stereo partly specified)
SK-MEL-28 melanoma
  TGI: > 12.5 µM
NCI-H460 lung
  TGI: > 12.5 µM
NCI-H23 lung
  TGI: > 12.5 µM
OVCAR-4 ovarian
  TGI: > 12.5 µM
SN12C renal
  TGI: 5.31 µM
MDA-MB-435
  TGI: 12.2 µM
NCI-H522 lung
  TGI: 5.9 µM
SK-MEL-5 melanoma
  TGI: > 12.5 µM
DU-145 prostate
  TGI: > 12.5 µM
ACHN renal
  TGI: > 12.5 µM
HS 578T breast
  TGI: > 12.5 µM
A498 renal
  TGI: > 12.5 µM
HT29 colon
  TGI: > 12.5 µM
BT-549 breast
  TGI: > 12.5 µM
SK-OV-3 ovarian
  TGI: > 12.5 µM
T-47D breast
  TGI: 6.94 µM
OVCAR-8 ovarian
  TGI: 5.95 µM
M14 melanoma
  TGI: > 12.5 µM
SF-295 CNS
  TGI: > 12.5 µM
HCT-116 colon
  TGI: 6.63 µM
CCRF-CEM leukemia
  TGI: 4.9 µM
MDA-N
  TGI: 4.02 µM
EKVX NSCLC
  TGI: 10.5 µM
NCI-H226 lung
  TGI: > 12.5 µM
UO-31 renal
  TGI: 5.11 µM
HCT-15 colon
  TGI: 11.5 µM
CAKI-1 renal
  TGI: > 12.5 µM
HOP-92 NSCLC
  TGI: 4.5 µM
U251 CNS
  TGI: 11.4 µM
K-562 leukemia
  TGI: 11.6 µM
RXF 393 renal
  TGI: 4.01 µM
786-0 renal
  TGI: 3.59 µM
OVCAR-5 ovarian
  TGI: > 12.5 µM
SF-539 CNS
  TGI: 5.41 µM
IGROV1 ovarian
  TGI: 5.81 µM
MALME-3M melanoma
  TGI: > 12.5 µM
MCF7 breast
  TGI: 9.73 µM
LOX IMVI melanoma
  TGI: 4.56 µM
COLO 205 colon
  TGI: > 12.5 µM
SNB-19 CNS
  TGI: > 12.5 µM
HL-60(TB) leukemia
  TGI: > 12.5 µM
SF-268 CNS
  TGI: > 12.5 µM
MOLT-4 leukemia
  TGI: 4.85 µM
HOP-62 NSCLC
  TGI: > 12.5 µM
UACC-62 melanoma
  TGI: 4.61 µM
OVCAR-3 ovarian
  TGI: 5.91 µM
PC-3 prostate
  TGI: > 12.5 µM
TK-10 renal
  TGI: 6.07 µM
SNB-75 CNS
  TGI: 10.5 µM
UACC-257 melanoma
  TGI: 6.52 µM
SK-MEL-2 melanoma
  TGI: 6.14 µM
KM12 colon
  TGI: > 12.5 µM
MDA-MB-231 breast
  TGI: 7.08 µM
A549 NSCLC
  TGI: > 12.5 µM
SW-620 colon
  TGI: 6.69 µM
NCI/ADR-RES ovarian
  TGI: > 12.5 µM
